Data set [1] deals with Fibroblast. The data set can be described thus: Cytotoxicity against human fibroblasts assessed as reduction in cell viability at 0.01 to 3 mM measured after 72 hrs by MTT assay relative to control. It counts as toxicity, cell-based. The conditions noted are these: 3000 µM, dose 0.01-3 mM. (Tetrazolium dyes change colour on reduction, which living cells bring about.)
Data set [2] deals with Fibroblast. The data set can be described thus: Cytotoxicity against human fibroblasts assessed as reduction in cell viability at 0.01 to 3 mM measured after 24 hrs by MTT assay. The conditions noted are these: 3000 µM, dose 0.01-3 mM. It counts as toxicity, cell-based.
Data set [3] is described as follows: Drug uptake in human D54 cells assessed as boron accumulation at 1 mM measured after 2 hrs per mg of cell pellet by ICP-MS analysis (reference value: 0.15 +/- 0.19 ng/mg). It counts as ADME, cell-based. The conditions noted are these: d54, 2 h, 1000 µM.
A short description of data set [4]: Drug uptake in human fibroblasts assessed as boron accumulation at 1 mM measured after 24 hrs per mg of cell pellet by ICP-MS analysis (reference value: 0.30 +/- 0.09 ng/mg). It counts as ADME, cell-based. Particulars: fibroblast, 1000 µM.
The next data set has as its system D54 cell line. Nature of the data set: Cytotoxicity against human D54 cells assessed as cell killing at 1 mM measured after 72 hrs by MTT assay. It is filed as functional.
Data set [5] is described as follows: Drug uptake in human D54 cells assessed as boron accumulation at 1 mM measured after 24 hrs per mg of cell pellet by ICP-MS analysis (reference value: 0.15 +/- 0.19 ng/mg). It is filed as ADME, cell-based. Particulars: d54, 24 h, 1000 µM.

Each structure is given as a SMILES string.

Turning to `N[C@@H](Cc1ccc(B(O)O)cc1)C(=O)O`, in the data set on Fibroblast [1], the Activity is listed as -19%.

Regarding `OB1CC[C@H]2OC(O)[C@H](O)[C@@H](O)[C@@H]2O1` (some centres not stated), the Activity result in the data set on Fibroblast [2] is recorded as “Non-Toxic”; with Fibroblast [1] it was -10%; with D54 cell line, 15%. The Drug uptake in data set [3] came out at 3 ng/mg; in data set [4] it was 0.85 ng/mg; in data set [5], 6 ng/mg.
